Test results reported in patent publication US4918083A, “4,5 Dihydroimidazole compounds which have useful pharmaceutical utility” (Beecham Group p.l.c., priority 1986, dated 1990).
Structures can show the parent of a compound that is named as a salt. Where two headings read alike, the source gives them in different places.

Assays:
[1] = target: T1, α2 -Adrenoceptor (Homo sapiens, UniProt P08913); test: α2-Adrenoceptor Binding ([3H] Rauwolscine, human platelet membranes)
T1 construct: Human platelet membranes; from tissue; host or cells: human platelet membranes
T1 sequence (P08913 1-465): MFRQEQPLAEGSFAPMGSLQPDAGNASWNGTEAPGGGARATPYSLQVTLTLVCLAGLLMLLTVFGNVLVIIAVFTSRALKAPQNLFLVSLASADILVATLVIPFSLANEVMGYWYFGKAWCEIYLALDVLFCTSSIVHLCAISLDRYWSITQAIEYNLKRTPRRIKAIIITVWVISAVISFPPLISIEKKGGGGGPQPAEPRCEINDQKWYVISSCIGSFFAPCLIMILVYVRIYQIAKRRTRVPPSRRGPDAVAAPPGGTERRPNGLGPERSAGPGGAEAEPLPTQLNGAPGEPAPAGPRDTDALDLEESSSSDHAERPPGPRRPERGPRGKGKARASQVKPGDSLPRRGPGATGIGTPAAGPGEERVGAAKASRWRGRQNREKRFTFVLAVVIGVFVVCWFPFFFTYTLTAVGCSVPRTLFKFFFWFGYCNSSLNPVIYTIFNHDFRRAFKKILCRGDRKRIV
Procedure: (B) α2 -Adrenoceptor Binding
Human platelet membranes were incubated with [^3 H] Rauwolscine (0.5-1.0 nM) for 30 minutes at 30° C. with varying concentrates of the drug (0.1-10,000 nM). The binding assay was stopped by filtering and rinsing on GF/B glass fibre filters.

[2] = tested on: blood glucose; test: Reversal of Adrenaline-Exacerbated Glucose Intolerance in Mice; assay type: in vivo, CFLP female mice; settings: Mus musculus, 2 h, oral gavage, glucose 1 g/kg and adrenaline 300 μg/kg s.c. 30 min later, 0-120 min, vs water dosed control, read-out: % Reduction in area under Blood Glucose curve; for inhibition in vivo at 20 µmol/kg: 20 μmol/kg
Procedure: (A) Reversal of Adrenaline-Exacerbated Glucose Intolerance in Mice
CFLP female mice of about 25 g were fasted for 24 hours prior to receiving water (10 ml/kg) or compounds by oral gavage. Thirty minutes later, glucose (1 g/kg) and adrenaline (300 μg/kg) were injected subcutaneously. Blood samples for glucose analysis were taken serially from the tail of each mouse at 0, 30, 60 90 and 120 minutes after dosing glucose and the results are expressed below as the percentage reduction in the area under the blood glucose curve; the compound treated groups being compared to the water dosed control group. Six mice were used in each treatment group.

[3] = human platelet membranes, [3H] Rauwolscine 0.5-1.0 nM, 30 minutes at 30° C., read-out: Binding Affinity Ki

Row | SMILES | Ki [1, 3] [nM] | inhibition in vivo at 20 µmol/kg [2] [%] | Ki [1] [nM] | inhibition in vivo at 5 µmol/kg ([2]; 5 μmol/kg) [%] | inhibition in vivo at 10 µmol/kg ([2]; 10 μmol/kg) [%]
1 | CC1c2ccccc2CN1CC1=NCCN1 (stereo not drawn) [Example 1, 2-[2H-(1-Methyl-1,3-dihydroisoindole)methyl]-4,5-dihydroimidazole] |  | 34 | 1.7 |  | 
2 | CC1c2ccc(F)cc2CN1CC1=NCCN1 (stereo not drawn) [Example 5, 2[2H-(5-Fluoro-1-methyl-1,3-dihydroisoindole)methyl]-4,5-dihydroimidazole] | 0.8 |  |  | 20 | 
3 | CC(C)C1c2ccccc2CN1CC1=NCCN1 (stereo not drawn) [Example 10, 2-(2H-[1-(1-Methylethyl)-1,3-dihydroisoindole]methyl)-4,5-dihydroimidazole dihydrochloride hemihydrate] | 34 |  |  |  | 
4 | CCC1c2ccccc2CN1CC1=NCCN1 (stereo not drawn) [Example 2, 2-[2H-(1-Ethyl-1,3-dihydroisoindole)methyl]-4,5-dihydroimidazole dihydrochloride] | 4.1 | 27 |  |  | 
5 | c1ccc(CC2c3ccccc3CN2CC2=NCCN2)cc1 (stereo not drawn) [Example 13, 2-[2H-(1-Benzyl-1,3-dihydroisoindole)methyl]-4,5-dihydroimidazole] | 40 | 16 |  |  | 
6 | CC1c2ccc(Cl)cc2CN1CC1=NCCN1 (stereo not drawn) [Example 3, 2-[2H-(5-Chloro-1-methyl-1,3-dihydroisoindole)methyl]-4,5-dihydroimidazole dihydrochloride] | 3.4 |  |  |  | 41
7 | CC1c2cc(Cl)ccc2CN1CC1=NCCN1 (stereo not drawn) [Example 4, 2-[2H-(6-Chloro-1-methyl-1,3-dihydroisoindole)methyl]-4,5-dihydroimidazole] | 6.4 | 27 |  |  | 

Continued, in another order:

Row | Ki [1, 3] [nM] | SMILES | inhibition in vivo at 20 µmol/kg [2] [%] | Ki [1] [nM] | inhibition in vivo at 5 µmol/kg ([2]; 5 μmol/kg) [%] | inhibition in vivo at 10 µmol/kg ([2]; 10 μmol/kg) [%]
8 | 25 | Cc1ccc(C2c3ccccc3CN2CC2=NCCN2)cc1 (stereo not drawn) [Example 11, 2-[2H-(1-(4-Methylphenyl)-1,3-dihydroisoindole)methyl]-4,5-dihydroimidazole] |  |  |  | 
9 | 6.9 | c1ccc(C2c3ccccc3CN2CC2=NCCN2)cc1 (stereo not drawn) [Example 9, 2-[2H-(1-Phenyl-1,3-dihydroisoindole)methyl]-4,5-dihydroimidazole] | 31 |  |  | 
10 | 1.8 | Clc1cccc(C2c3ccccc3CN2CC2=NCCN2)c1 (stereo not drawn) [Example 7] | 22 |  |  | 
11 | 2.7 | Fc1ccc(C2c3ccccc3CN2CC2=NCCN2)cc1 (stereo not drawn) [Example 8, 2-[2H-(1-(4-Fluorophenyl)-1,3-dihydroisoindole)methyl]-4,5-dihydroimidazole] | 21 |  |  | 
12 | 3.6 | Clc1ccc(C2c3ccccc3CN2CC2=NCCN2)cc1 (stereo not drawn) [Example 6, 2-[2H-(1-(4-Chlorophenyl)-1,3-dihydroisoindole)methyl]-4,5-dihydroimidazole] | 15 |  |  | 
13 | 2 | COc1ccc(C2c3ccccc3CN2CC2=NCCN2)cc1 (stereo not drawn) [Example 12, 2-[2H-(1-(4-Methoxyphenyl)-1,3-dihydroisoindole)methyl]-4,5-dihydroimidazole] | 34 |  |  | 
